Measured values from US9925185B1, “Treatment and prevention methods for mammalian neurosensory hair cells loss” (Creighton University, priority 2014, dated 2018).

Legend:
N2a cells = system: N2a cells
Description: (§1) Cytotoxicity effects for each drug were measured by the colorimetric MTT assay. The MTT assay includes a yellow tetrazole that is reduced to purple formazan in living cells. In this implementation, solubilization solution (e.g., dimethyl sulfoxide, an acidified ethanol solution, or a solution of the detergent sodium dodecyl sulfate in diluted hydrochloric acid) was added to dissolve the insoluble purple formazan product into a colored solution. The absorbance of this colored solution was quantified by measuring at a certain wavelength (e.g, between 500 and 600 nm) by a spectrophotometer where the degree of light absorption depends on the solvent. The MTT assay can provide a useful measure of cell viability and proliferation. To quantify cytotoxicity, 10 μl of 10 mg/ml of MTT reagent was added to a well containing cells, and the cells were incubated at 37° C. for 4 hours. The supernatant was aspirated and the purple-colored formazan product was dissolved in 100 μl of DMSO. Absorbance was measured at 590 nm. The average of triplicate wells was taken for each concentration of the drug, and cell viability was calculated by substituting the corresponding mean absorbance values using the following equation:
(§2) A T-test (*=p<0.01; 0 μM=untreated cells) was used to compare toxicity between the two drugs at different concentrations.

HT 1080 cells = system: HT 1080 cells
Description: as §1, §2

[1] = system: cisplatin-treated HT 1080 cells; experiment: Protective potential of quinoxaline pre-treatment on cisplatin-treated HT 1080 cells; assay type: cell-based, human; settings: quinoxaline pre-treatment 1 hour, then 100 μM cisplatin 24 hours
Description: as §1, with “equation: […]” for “equation:”
(§3) Cells were plated at a density of 20,000 cells per well overnight, followed by a pretreatment with varying concentrations of quinoxaline for one hour. […]

[2] = system: cisplatin-treated N2a cells; settings: 1 μM quinoxaline pre-treatment, then 100 μM cisplatin
Description: as §1, with “equation: […]” for “equation:”
as §3

HEI-OC1 cells [3] = experiment: CYQUANT cell proliferation assay (DNA content) in HEI-OC1 cells; assay type: cell-based; settings: 200 nM, 500 nM, 1 μM, 5 μM for 24 hours, t-test p<0.001, most noticeable at 200 and 500 nM
Description: In an implementation, HEI-OC1 cells were treated with different concentrations (e.g., 200 nM, 500 nM, 1 μM, and 5 μM) of quinoxaline for 24-hours. Untreated cells were used as control groups. To quantify potential changes in cell proliferation following the treatment, DNA isolated from treated and untreated cells was submitted to CYQUANT analysis (Invitrogen, Grand Island, N.Y.), following the manufacturer's instructions for cell proliferation assay. The CYQUANT assay is based on the principle that cell number is proportional to the measurement of cellular DNA content. However, the use of the CYQUANT assay is offered by way of example only and is not meant to be restrictive of the present disclosure. In other embodiments, other types of cell proliferation assays can be used to quantify potential changes in cell proliferation. FIG. 3B illustrates the DNA content of untreated cells and quinoxaline-treated cells. […] Quinoxaline's effect in cell proliferation was most noticeable when cells were treated with lower concentrations (i.e., 200 nm and 500 nM) of the drug.

HEI-OC1 cells [4] = assay type: cell-based; settings: 24 hours
Description: As previously done for HT 1080 and N2a cells, the potential cytotoxicity of quinoxaline was measured in HEI-OC1 cells. HEI-OC1 cells were treated with a crescent dosage of quinoxaline (i.e., 200 nM, 500 nM, 1 μM, 10 μM, 50 μM) for 24 hours and submitted to MIT analyses.

[5] = system: cisplatin-treated HEI-OC1 cells; experiment: Protective potential of quinoxaline pre-treatment on cisplatin-treated HEI-OC1 cells; assay type: cell-based
Description: HEI-OC1 cells were plated at a density of 20,000 cells per well overnight, followed by a pre-treatment with varying concentrations of quinoxaline (i.e., 200 nM, 1 μM, 10 μM, and 50 μM) for one hour.

[6] = system: cochlear hair cells (organ of Corti); experiment: In vivo chemoprotective and proliferative effects on cochlear hair cells of cisplatin-treated mice; settings: C57BL/6 mice
Description: The inner ear neurosensory epithelia, the organ of Corti (OC), were analyzed. FIGS. 4A through 4D illustrate the outer hair cells (OHCs) and inner hair cells (IHCs) in the middle turn of the cochlea of adult C57BL/6 mice submitted to different treatments. The control group was the untreated cochlea, illustrated in FIG. 4A.

Structure (SMILES)	cell response compared with HT 1080 cells (N2a cells)	cytotoxicity (HT 1080 cells)	effect on cell proliferation (total number of cells) (HT 1080 cells; HT 1080 cells, 0.5 μM)	overall cytotoxicity versus 100 μM cisplatin only [1]	cell proliferation [2]	DNA content (cell proliferation) versus untreated cells (HEI-OC1 cells [3])	cell death (HEI-OC1 cells [4]; HEI-OC1, dosages higher than 10 μM)	cell proliferation (HEI-OC1 cells [4]; HEI-OC1, lower doses of quinoxaline)	sensitivity of HEI-OC1 cells (HEI-OC1 cells [4]; quinoxaline concentrations higher than 5 μM)	survival rate ([5]; 200 nM quinoxaline 1 hour pre-treatment + 200 μM cisplatin 24 hours) [%]	survival rate ([5]; 1 μM quinoxaline 1 hour pre-treatment + 200 μM cisplatin 24 hours) [%]	cell survival ([5]; pre-treated with higher than 10 μM quinoxaline + 200 μM cisplatin)	cell proliferation (numbers of supernumerary cells) ([6]; low doses (e.g., 15 mg))	supernumerary myosin VIIa-positive cells at the IHC region ([6]; quinoxaline pre-treated ears)	myosin VIIa-positive hair cells in middle turn of cochlea ([6]; quinoxaline pre-treatment + cisplatin 20 mg/Kg, versus cisplatin only)
N.N.[Cl][Pt][Cl] [cisplatin, reference compound]	No statistically significant differences														
c1ccc2nccnc2c1 [quinoxaline]	No statistically significant differences	consistently lower than that of cisplatin	modest, but quantifiable, positive effect on cell proliferation	significantly reduced overall cytotoxicity	promoted their proliferation	statistically significant increase in DNA content	smaller, but quantifiable cell death	increase in cell proliferation	particularly sensitive	25	40	No statistically significant differences in cell survival	increase in the numbers of supernumerary cells	supernumerary myosin VIla-positive cells were observed	myosin VIla-positive hair cells were still observed
